Measurements reported in ChEMBL document CHEMBL2169841, “A simple solid phase, peptide-based fluorescent assay for the efficient and universal screening of HRV 3C protease inhibitors” (Bioorg Med Chem Lett, 2012).
Values after ≈ are worked out from the molar mass of the structure shown.

How the values were obtained:
Parameters in all cases: species or system rhinovirus B14
[1] = Inhibition of human rhinovirus 14 recombinant N-terminal GST-tagged protease 3c expressed in Escherichia coli DH5alpha using LEVLFQGPSK(Fluoro)G as substrate after 1 hr by discontinuous heterogeneous fluorometric assay
[2] = Inhibition of human rhinovirus 14 recombinant N-terminal GST-tagged protease 3c expressed in Escherichia coli DH5alpha using Staphylococcus superantigen like protein 7-thioredoxin fusion protein as substrate after 1 hr by SDS-PAGE analysis
[3] = Inhibition of human rhinovirus 14 protease 3c by HPLC analysis

| Structure (SMILES) | IC50 [1] [µM] | IC50 [2] [µg/mL] | IC50 [3] [µg/mL] |
| --- | --- | --- | --- |
| O=C1C=C(Br)C(=O)c2ccccc21 [2-Bromo-1,4-naphthoquinone] | 4.2 |  |  |
| C=CCC1=C(Br)C(=O)c2ccccc2C1=O | 8.8 |  |  |
| C[C@H]1CC2=C(C(=O)c3c(O)cc(O)cc3C2=O)[C@H](O)O1 | 53 | 14.1 | 13 (≈ 47.1 µM) |
| CC(=O)CC1=C(Br)C(=O)c2ccccc2C1=O | 62.7 |  |  |
| CC(O)CC1=C(Br)C(=O)c2ccccc2C1=O (configuration not stated) | 92.5 |  |  |
